Assay results from article PMC9918900, “New Succinimide–Thiazolidinedione Hybrids as Multitarget Antidiabetic Agents: Design, Synthesis, Bioevaluation, and Molecular Modelling Studies” (Molecules, 2023).

What was measured:
α-glucosidase = assay: in vitro α-glucosidase inhibitory activity; format: biochemical, Homo sapiens
Protocol: The inhibitory analyses for α-glucosidase were carried out in accordance with the protocols reported in the literature; the inhibitory activities of the synthesized hybrids were calculated utilizing screening assay tools.

α-amylase = biological target: T1, α-amylase (Homo sapiens, UniProt P04746); assay: in vitro α-amylase inhibitory activity; format: biochemical
T1 sequence (P04746 16-511): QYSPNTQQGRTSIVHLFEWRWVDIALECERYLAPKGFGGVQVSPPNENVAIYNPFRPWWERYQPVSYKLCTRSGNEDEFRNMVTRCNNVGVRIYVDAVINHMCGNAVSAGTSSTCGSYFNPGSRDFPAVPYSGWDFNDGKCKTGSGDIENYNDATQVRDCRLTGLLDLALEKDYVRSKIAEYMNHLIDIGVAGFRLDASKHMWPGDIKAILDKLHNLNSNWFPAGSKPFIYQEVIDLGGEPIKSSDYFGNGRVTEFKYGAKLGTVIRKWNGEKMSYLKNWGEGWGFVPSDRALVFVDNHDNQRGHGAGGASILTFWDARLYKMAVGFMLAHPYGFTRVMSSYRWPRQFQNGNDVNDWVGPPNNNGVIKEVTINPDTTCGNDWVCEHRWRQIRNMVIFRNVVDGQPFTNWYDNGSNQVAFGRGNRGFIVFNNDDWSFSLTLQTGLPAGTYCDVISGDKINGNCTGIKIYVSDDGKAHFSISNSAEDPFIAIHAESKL
Protocol: The test samples were added in alpha-amylase solution. The enzyme solution was prepared with enzyme and buffer solution. The mixture of the samples and enzyme was then incubated. Then, starch and dinitrosalicylic acid solution was added. The same was performed for both test compounds and the standard drug. […] The percent alpha-amylase inhibition activity and its IC50 values were calculated and confirmed as per the previous procedure.

human DPP-4 enzyme = biological target: T2, human DPP-4 enzyme (Homo sapiens, UniProt P27487); assay: DPP-4 activity bioassay; format: biochemical
T2 construct: purchased
Protocol: All succinimides and thiazolidinedione hybrids were tested for DPP-4 inhibitory effects on a human DPP-4 enzyme using the methodology published before. The DPP-4 kit was used to measure the inhibition. L-thiazolidine (P32/98) was included as a reference. The hybrids and DPP-4 enzyme were both adulterated 1/50 in the assay buffer (PH = 7.4, 25 mM Tris). Following that, a microplate well was filled with 5 μL of assay buffer, 3 μL of enzyme solution, and 2 μL of adequately diluted test chemical solutions. After a 12-min incubation period at 37.5 °C, a diluted substrate solution of 25 μL was added into the solution. A multi-mode reader was used to assess the fluorescence. […] PRISM5 was used to calculate the IC50 values and compare the inhibition ratio to the control without the inhibitor.

[1] = test system: streptozotocin-induced diabetic rats; assay: in vivo antidiabetic activity, fasting plasma glucose level; set-up: species or system Wistar rats; settings: STZ-induced diabetic rats, 28th day
Protocol: (§1) The antidiabetic activity of the synthesized compound 10d was evaluated using a streptozotocin-induced diabetic rats model.
(§2) Male Wistar rats weighing 150 to 230 gm were used for the study which were housed in polyacrylic cages (no more than six animals per cage) with dimensions of 38 × 23 × 10 cm and maintained under standard laboratory conditions with a dark/light cycle of 14 h of dark and 10 h of light at a temperature of 25 °C. The animals were provided with a standard diet (dry pellet) and water ad libitum. Before the start of the experimental procedures, the rats were acclimatized to laboratory conditions for 10 days. All the experiments were approved and performed as per the guidelines of the Departmental Research Ethics Committee under letter No. DREC/050 [49].
(§3) Non-insulin-dependent diabetes mellitus was induced in fasted rats weighing 150–230 gm using a single dose of streptozotocin (STZ) at a dose of 60 mg/kg intraperitoneally after 15 min of the administration of nicotinamide at a 120 mg/kg dose i.p. Nicotinamide was prepared in normal saline while in citrate buffer (pH 4.5), STZ was prepared. After the induction of diabetes, the increase in the plasma glucose level was measured at 72 h and then measured on the 7th day to confirm hyperglycemia. For the diagnosis of diabetes, the threshold value of the fasting plasma glucose level was considered to be more than 126 mg/dl. For the study, only the animals with permanent NIIDM were utilized.
The animals were classified into 5 groups with 6 animals in each group (n = 6). […] The fasting glucose concentration was measured on the 0, 7th, 14th, and 28th day of the administration of the extract. During the experimental tenure, the weights of the rats were determined daily and the mean change was recorded.

[2] = test system: streptozotocin-induced diabetic rats; assay: effect on serum lipid profile of diabetic animals; format: in vivo, Wistar rats; settings: compared to diabetic control group
Protocol: as §1, §2, §3
(§4) The animals were classified into 5 groups with 6 animals in each group (n = 6). Group I comprised of normal control rats which were daily administered drinking water only; group II served as diabetic control rats (disease group); group III served as the positive control and were administered 0.5 mg/kg of the standard drug glibenclamide; and group IV and V served as the test group rats and were administered the test compound 10d at 10 mg/kg and 20 mg/kg, respectively, for twenty-eight days. The fasting glucose concentration was measured on the 0, 7th, 14th, and 28th day of the administration of the extract. During the experimental tenure, the weights of the rats were determined daily and the mean change was recorded.
The animals were euthanized (sacrificed) via cervical dislocation on the 28th day to observe the biochemical parameters. The parameters studied were triglyceride (TGL), cholesterol, low-density lipoprotein, and high-density lipoprotein (LDL and HDL). The Minias Globe Diagnostic kits were used for cholesterol and TGL. Semi-autoanalyzers were used for the analysis. The serum samples from the rats were also checked for alanine aminotransferase (ALT), aspartate aminotransferase (AST), lactate dehydrogenase (LDH), serum alkaline phosphatase (ALP), and creatinine and urea levels utilizing commercially available kits of Crest Biosystems. The statistical analysis was also performed as per the previous procedure.

[3] = test system: streptozotocin-induced diabetic rats; assay: serum insulin level estimation; format: in vivo, Wistar rats; set-up: unit not given here; settings: for Insulin Level (Mean ±SEM), Final Reading: 28th day
Protocol: as §3, §4
After the 28th day of treatment with the test compound 10d, the blood samples were taken for the determination of the insulin levels, which were measured with the help of GLAZYME INSULIN-EIA TEST.

T2 sequence (P27487 whole entry): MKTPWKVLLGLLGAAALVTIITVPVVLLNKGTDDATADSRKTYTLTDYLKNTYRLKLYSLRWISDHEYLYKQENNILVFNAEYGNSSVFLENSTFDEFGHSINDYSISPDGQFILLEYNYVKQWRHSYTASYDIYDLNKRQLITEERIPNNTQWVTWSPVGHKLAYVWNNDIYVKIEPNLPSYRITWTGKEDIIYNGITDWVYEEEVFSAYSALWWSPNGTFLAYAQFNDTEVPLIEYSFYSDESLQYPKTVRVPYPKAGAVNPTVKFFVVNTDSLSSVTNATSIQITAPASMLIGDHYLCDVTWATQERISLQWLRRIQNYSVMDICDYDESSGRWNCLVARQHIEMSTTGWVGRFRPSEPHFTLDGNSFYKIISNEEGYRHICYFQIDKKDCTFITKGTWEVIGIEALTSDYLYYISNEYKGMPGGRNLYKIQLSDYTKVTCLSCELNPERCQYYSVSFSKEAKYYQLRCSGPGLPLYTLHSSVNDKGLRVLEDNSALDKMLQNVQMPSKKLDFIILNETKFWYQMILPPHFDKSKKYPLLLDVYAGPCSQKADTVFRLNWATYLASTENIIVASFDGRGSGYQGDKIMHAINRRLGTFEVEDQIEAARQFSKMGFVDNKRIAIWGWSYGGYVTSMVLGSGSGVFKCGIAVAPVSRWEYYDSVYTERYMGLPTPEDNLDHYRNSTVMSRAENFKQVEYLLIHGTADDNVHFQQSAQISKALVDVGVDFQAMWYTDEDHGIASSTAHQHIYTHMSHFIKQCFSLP

In the case of `CC(C)(C=C1SC(=O)N(C(=O)CN2CCOCC2)C1=O)C1CC(=O)N(Cc2ccccc2)C1=O` (stereo not shown) [10d], the IC50 (α-glucosidase) is reported as 10 µM, the “% α-Glucosidase Inhibition” value (α-glucosidase; 31.25 µM) is reported as 67.10 ± 0.95% and the “% α-Glucosidase Inhibition” value (α-glucosidase; 62.5 µM) is reported as 72.26 ± 0.77%. The “% α-Glucosidase Inhibition” value (α-glucosidase; 125 µM) was 77.93 ± 0.90%, the “% α-Glucosidase Inhibition” value (α-glucosidase; 250 µM) was 83.83 ± 0.66% and the “% α-Glucosidase Inhibition” value (α-glucosidase; 500 µM) was 88.43 ± 1.26%. For the same compound, the IC50 (α-amylase) was 12 µM, the inhibition at 31.25 µM (α-amylase; 31.25 µM, read-out: % α-Amylase Inhibition (converted)) was 68.6% and the inhibition at 62.5 µM (α-amylase; 62.5 µM, read-out: % α-Amylase Inhibition (converted)) was 70%. The inhibition at 125 µM (α-amylase; 125 µM, read-out: % α-Amylase Inhibition (converted)) was 72.7%, the inhibition at 250 µM (α-amylase; 250 µM, read-out: % α-Amylase Inhibition (converted)) was 76.3% and the inhibition at 500 µM (α-amylase; 500 µM, read-out: % α-Amylase Inhibition) was 82.3 ± 1.2%. It also gave an inhibition at 31.25 µM (human DPP-4 enzyme; 31.25 µM, read-out: DPP4 (inhibition) (converted)) of 71.4%, an inhibition at 62.5 µM (human DPP-4 enzyme; 62.5 µM, read-out: DPP4 (inhibition) (converted)) of 76.5% and an inhibition at 125 µM (human DPP-4 enzyme; 125 µM, read-out: DPP4 (inhibition) (converted)) of 81.4%. The inhibition at 250 µM (human DPP-4 enzyme; 250 µM, read-out: DPP4 (inhibition) (converted)) was 85.3%, the inhibition at 500 µM (human DPP-4 enzyme; 500 µM, read-out: DPP4 (inhibition)) was 91.4 ± 1.49% and the IC50 (human DPP-4 enzyme; read-out: IC50 DPP4) was 4.22 µM. For the same compound, the blood glucose level ([1]; 10 mg/kg) was 93.15 mg/dL, the blood glucose level ([1]; 20 mg/kg) was 70.60 mg/dL and the HDL level [2] was “greater than before”. The LDL in serum [2] was “significant decline”, the “total cholesterol level in serum” value [2] was “significant decline” and the triglyceride in serum [2] was “significant decline”. The “Insulin Level (Mean ±SEM), Initial Reading” value ([3]; 10mg (10 mg/kg) group) was 0.81 ± 0.25, the “Insulin Level (Mean ±SEM), Final Reading” value ([3]; 10mg (10 mg/kg) group) was 0.65 ± 0.57 and the “Insulin Level (Mean ±SEM), Initial Reading” value ([3]; 20mg (20 mg/kg) group) was 0.76 ± 0.38. For the same compound, the “Insulin Level (Mean ±SEM), Final Reading” value ([3]; 20mg (20 mg/kg) group) was 0.76 ± 0.81.
